The source of these data is patent US20250051324A1, “PARP INHIBITOR, PHARMACEUTICAL COMPOSITION COMPRISING SAME, AND USE THEREOF” (KEYTHERA (SUZHOU) BIO-PHARMACEUTICALS CO., LIMITED, priority 2021, published 2025).

Data set [1] concerns the target T1, PARP1 (Homo sapiens (Human), UniProt P09874). In words: PARP enzyme activity assay (PARP1 chemiluminescent assay kit). The settings on record: enzyme inhibitory activity, read-out: PARP-1 IC50. Type of data set: biochemical. The essentials:
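Chemiluminescent kit measuring PARP1 poly(ADP-ribosylation) of plate-coated histones in presence of activated DNA; compounds in 1:3 serial dilution, top 10 μM before 10-fold buffer dilution. Enzyme (2.5 ng/μL added) reacted 60 min at room temperature, detected by streptavidin-HRP luminescence; IC50 from log-concentration vs % inhibition.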

Data set [2] has as its target T1, PARP1. Description: PARP1 trapping assay. The data set is classed as biochemical. The settings on record: read-out: Inhibitory Effect on PARP1 Trapping IC50. The essentials:
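PARP1 and PARP2 with GST-Tb antibody and probe incubated with serially diluted compounds for 45 min at room temperature, then NAD added for 10 min before plate reading. Percent inhibition derived from compound, blank and vehicle control readings.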

Data set [3] in a line: Evaluation of pharmacokinetics in rats. Type of data set: in vivo. The settings on record: male, SD, rat, plasma, 1 mg/kg, oral gavage (PO, 1 mpk). The source says:
Test Animals: 6-8 Week Old Male SD Rats
Food was restored two hours after dosing.

Data set [4] deals with peripheral blood reticulocytes. Description: Effect of compound on rat reticulocytes. Type of data set: in vivo. The settings on record: 4 days. The procedure:
Test Objective: The effect of the compound on peripheral blood reticulocytes was evaluated to determine its impact on bone marrow hematopoietic function.
Test Compounds: Olaparib, Compound 1
Experimental Animals: Male Sprague Dawley rats were purchased from Beijing Charles River Laboratory Animal Technology Co., Ltd. Housing and Management: The experimental animals were housed in SPF-grade, temperature- and humidity-controlled clean rooms, using individually ventilated cages (IVC) with no more than 5 rats per cage. Temperature/humidity was controlled within the range of (23±3)° C./40-70%. Feed and water: SPF-grade rat feed, sterilized by cobalt-60 irradiation. Drinking water was ultrafiltered and autoclaved. Animals had free access to sterile food and water. Animal identification: ear tags.
Experimental Method: The experiment was divided into the following 5 groups: vehicle control group; Olaparib 100 mg/kg; Compound 1 0.1 mg/kg; Compound 1 0.3 mg/kg; and Compound 1 1.0 mg/kg. All treatments were administered orally by gavage once daily for 4 days. Blood samples were collected before and after treatment to measure peripheral blood reticulocyte counts.

Data set [5] can be described thus: Liver microsome metabolism assay. The following applies: CD1, mouse, liver microsomes. On the technique in general: Microsomes from liver hold many membrane-bound enzymes, among them those of drug oxidation.
Experimental: Experimental Materials: Mixed CD1 mouse liver microsomal enzyme protein was purchased from Xenotech (#M1000), and NADPH was purchased from Abmole (#M9076).
1. To the liver microsomal enzyme reaction system, 210 μL of phosphate buffer was added, followed by 12.5 μL of liver microsomal enzyme at a concentration of 20 mg/mL. Then, 25 μL of NADPH at a concentration of 10 mM was added to the system, mixed well, and incubated in a 37° C. water bath with shaking for 10 minutes.
2. The test compound, stored at a concentration of 10 mM, was diluted to 100 μM with DMSO. Then, 2.5 μL of the diluted test compound was added to the reaction system, mixed well, and incubated in a 37° C. water bath with shaking.
3. At 0.5, 5, 10, 20, 30, and 60 minutes, 25 μL of the enzyme reaction mixture was taken and added to 125 μL of cold acetonitrile containing dexamethasone as an internal standard. The mixture was centrifuged at 4000 g for 20 minutes, and the supernatant was mixed with an equal volume of distilled water. The mixed sample was then subjected to quantitative analysis by liquid chromatography-mass spectrometry.
4. Calculation of in vitro drug metabolism half-life and drug clearance rate:
t1/2=−0.693/k. (k: the slope of the linear regression of the natural logarithm of the percentage of drug remaining versus incubation time).

A word on the IC50: it is the concentration needed to halve the response being measured. Usually AUC(0-inf) stands for total exposure, with the tail of the curve extrapolated. A high value points to high exposure. As a reminder, the Cmax is the highest concentration seen after dosing. By half-life is commonly meant the time in which the quantity being followed falls by half. Read a low half-life as fast loss. A word on the microsomal CLint: it is the capacity of the preparation to metabolise the compound, expressed as a volume cleared per time. A low value points to slow turnover.

T1 sequence (P09874 whole entry): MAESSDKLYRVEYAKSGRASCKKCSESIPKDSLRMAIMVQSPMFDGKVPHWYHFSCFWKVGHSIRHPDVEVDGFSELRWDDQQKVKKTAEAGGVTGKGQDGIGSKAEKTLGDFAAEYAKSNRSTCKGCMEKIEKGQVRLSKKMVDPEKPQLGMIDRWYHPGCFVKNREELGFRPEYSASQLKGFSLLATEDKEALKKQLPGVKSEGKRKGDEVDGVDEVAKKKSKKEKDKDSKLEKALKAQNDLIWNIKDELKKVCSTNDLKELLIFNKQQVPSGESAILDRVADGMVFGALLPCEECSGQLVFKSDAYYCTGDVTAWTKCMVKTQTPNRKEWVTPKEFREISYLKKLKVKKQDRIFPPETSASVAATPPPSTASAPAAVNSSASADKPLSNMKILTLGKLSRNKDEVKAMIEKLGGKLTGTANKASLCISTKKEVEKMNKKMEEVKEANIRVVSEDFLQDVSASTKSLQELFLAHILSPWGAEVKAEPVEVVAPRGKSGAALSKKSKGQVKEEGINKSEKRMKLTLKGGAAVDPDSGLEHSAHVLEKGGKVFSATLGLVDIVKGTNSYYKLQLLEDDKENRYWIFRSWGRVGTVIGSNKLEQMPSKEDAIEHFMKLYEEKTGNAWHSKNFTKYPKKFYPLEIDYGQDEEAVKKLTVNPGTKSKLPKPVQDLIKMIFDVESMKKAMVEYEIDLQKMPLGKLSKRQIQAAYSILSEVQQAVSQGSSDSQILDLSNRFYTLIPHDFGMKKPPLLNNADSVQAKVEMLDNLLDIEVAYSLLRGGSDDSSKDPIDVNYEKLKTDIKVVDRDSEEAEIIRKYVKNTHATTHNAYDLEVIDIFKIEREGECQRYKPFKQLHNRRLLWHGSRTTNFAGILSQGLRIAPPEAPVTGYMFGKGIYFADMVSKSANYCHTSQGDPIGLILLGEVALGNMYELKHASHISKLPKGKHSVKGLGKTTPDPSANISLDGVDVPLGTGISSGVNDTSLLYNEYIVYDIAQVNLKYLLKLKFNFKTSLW

Regarding `CNC(=O)c1ccc(N2CCN(Cc3cnc4c(C)c(C(F)(F)F)c(=O)[nH]c4c3)CC2)cn1` [Compound 1, N-methyl-5-(4-((8-methyl-6-oxo-7-(trifluoromethyl)-5,6-dihydro-1,5-naphthyridin-3-yl)methyl)piperazin-1-yl)picolinamide], the IC50 on PARP1 [1] was determined as 2.78 nM; on PARP1 [2] it was 1.33 nM. In addition, the AUC(0-inf) in data set [3] is 11300 ng·h/mL. In data set [3], this molecule displayed a Cmax of 1740 ng/mL. The same molecule showed a half-life in data set [3] of 4.33 h. The “Reticulocyte Inhibition Rate” value in data set [4] (0.1 mg/kg oral once daily) worked out at 12.2%; in data set [4] (0.3 mg/kg oral once daily), 33.8%; in data set [4] (1.0 mg/kg oral once daily), 41.9%. In addition, the “Effect on peripheral blood reticulocytes (in words)” value in data set [4] (0.1, 0.3 and 1.0 mg/kg, p>0.05) is “no significant effect”. Also, the intrinsic clearance (microsomal CLint) at 1 µM in data set [5] stood at 0.32 µL/min/mg.
